Test results taken from patent publication US8362015B2, “Aminoacyl prodrug derivatives and medicaments for treatment of thromboembolic disorders” (Bayer Intellectual Property GmbH, priority 2006, dated 2013).
Structures can show the parent of a compound that is named as a salt.

Assays:
[1] = Stability in buffer at various pH values (HPLC, unchanged test substance); type: physicochemical; conditions: acetonitrile/buffer 1:1
Method: 0.3 mg of the test substance is weighed into a 2 ml HPLC vial and 0.5 ml of acetonitrile is added. The substance is dissolved by putting the sample vessel in an ultrasonic bath for about 10 seconds. Then 0.5 ml of the respective buffer solution is added, and the sample is again treated in the ultrasonic bath.
Buffer solutions employed: • pH 4.0: 1 liter of Millipore water is adjusted to pH 4.0 with 1 N hydrochloric acid; • pH 7.4: 90 g of sodium chloride, 13.61 g of potassium dihydrogen phosphate and 83.35 g of 1 M sodium hydroxide solution are made up to 1 liter with Millipore water and then diluted 1:10.
5 μl portions of the test solution are analysed by HPLC for their content of unchanged test substance every hour over a period of 24 hours at 25° C. The percentage areas of the appropriate peaks are used for quantification.
Agilent 1100 with DAD (G1314A), binary pump (G1312A), autosampler (G1329A), column oven (G1316A), thermostat (G1330A); column: Kromasil 100 C18, 60 mm×2.1 mm, 3.5 μm; column temperature: 30° C.; eluent A: water+5 ml of perchloric acid/liter, eluent B: acetonitrile; gradient: 0-1.0 min 98% A, 2% B→1.0-9.0 min 2% A, 98% B; 9.0-13.0 min 2% A, 98% B; 13.0-13.5 min 98% A, 2% B; 13.5-15.0 98% A, 2% B; flow rate: 0.75 ml/min; UV detection: 210 nm.
The ratios of the peak areas (F) at the respective time points in relation to the peak areas at the starting time are shown in Table 2 for representative exemplary embodiments: […]

[2] = Determination of the solubility in dilute hydrochloric acid (pH 4); type: physicochemical; conditions: aqueous buffer, thermodynamic from solid, room temperature, shaken 24 h
Method: The test substance is suspended in water or dilute hydrochloric acid (pH 4). This suspension is shaken at room temperature for 24 h. After ultracentrifugation at 224 000 g for 30 min, the supernatant is diluted with DMSO and analysed by HPLC. A two-point calibration plot of the test compound in DMSO is used for quantification.
Agilent 1100 with DAD (G1315A), quat. pump (G1311A), autosampler CTC HTS PAL, degasser (G1322A) and column thermostat (G1316A); column: Kromasil C18, 60×2.1 mm, 3.5 μm; temperature: 30° C.; eluent A: water+5 ml of perchloric acid/liter, eluent B: acetonitrile; flow rate: 0.7 ml/min; gradient: 0-0.5 min 98% A, 2% B; ramp 0.5-4.5 min 10% A, 90% B; 4.5-6 min 10% A, 90% B; ramp 6.5-6.7 min 98% A, 2% B; 6.7-7.5 min 98% A, 2% B.

| Structure (SMILES) | % test substance after 4 h [F(t = 4 h) × 100/F(t = 0 h)] ([1]; buffer pH 4, 25° C.) [%] | % test substance after 24 h [F(t = 24 h) × 100/F(t = 0 h)] ([1]; buffer pH 4, 25° C.) [%] | % test substance after 4 h [F(t = 4 h) × 100/F(t = 0 h)] ([1]; buffer pH 7.4, 25° C.) [%] | % test substance after 24 h [F(t = 24 h) × 100/F(t = 0 h)] ([1]; buffer pH 7.4, 25° C.) [%] | solubility at 24 h [2] [µg/mL] |
| --- | --- | --- | --- | --- | --- |
| NCC(=O)OCCCCC(=O)N(C[C@H]1CN(c2ccc(N3CCOCC3=O)cc2)C(=O)O1)C(=O)c1ccc(Cl)s1 [Example 2, hydrochloride] | 101 | 101 | 99 | 94 | – |
| CC(C)[C@H](N)C(=O)SCCCCC(=O)N(C[C@H]1CN(c2ccc(N3CCOCC3=O)cc2)C(=O)O1)C(=O)c1ccc(Cl)s1 [Example 4, S-(5-{[(5-Chloro-2-thienyl)carbonyl]({(5S)-2-oxo-3-[4-(3-oxomorpholin-4-yl)phenyl]-1,3-oxazolidin-5-yl}methyl)amino}-5-oxopentyl)(2S)-2-amino-3-methylbutanethioate hydrochloride] | 100 | 100 | 92 | 77 | – |
| NCCCC[C@H](N)C(=O)SCCCCC(=O)N(C[C@H]1CN(c2ccc(N3CCOCC3=O)cc2)C(=O)O1)C(=O)c1ccc(Cl)s1 [Example 6, S-(5-{[(5-Chloro-2-thienyl)carbonyl]({(5S)-2-oxo-3-[4-(3-oxomorpholin-4-yl)phenyl]-1,3-oxazolidin-5-yl}methyl)amino}-5-oxopentyl)(2S)-2,6-diaminohexanethioate dihydrochloride] | 99 | 99 | 90 | 53 | – |
| N[C@@H](Cc1c[nH]cn1)C(=O)NCCCCC(=O)N(C[C@H]1CN(c2ccc(N3CCOCC3=O)cc2)C(=O)O1)C(=O)c1ccc(Cl)s1 [Example 12, N-(5-{[(5-Chloro-2-thienyl)carbonyl]({(5S)-2-oxo-3-[4-(3-oxomorpholin-4-yl)phenyl]-1,3-oxazolidin-5-yl}methyl)amino}-5-oxopentyl)-L-histidinamide hydrochloride] | 100 | 101 | 99 | 93 | > 3000 |
| NCCCC[C@H](N)C(=O)NCCCCC(=O)N(C[C@H]1CN(c2ccc(N3CCOCC3=O)cc2)C(=O)O1)C(=O)c1ccc(Cl)s1 [Example 14, N-(5-{[(5-Chloro-2-thienyl)carbonyl]({(5S)-2-oxo-3-[4-(3-oxomorpholin-4-yl)phenyl]-1,3-oxazolidin-5-yl}methyl)amino}-5-oxopentyl)-L-lysinamide hydrochloride] | 100 | 100 | 98 | 88 | 1900 |

Now from value to molecule:

| % test substance after 4 h [F(t = 4 h) × 100/F(t = 0 h)] ([1]; buffer pH 4, 25° C.) [%] | % test substance after 24 h [F(t = 24 h) × 100/F(t = 0 h)] ([1]; buffer pH 4, 25° C.) [%] | % test substance after 4 h [F(t = 4 h) × 100/F(t = 0 h)] ([1]; buffer pH 7.4, 25° C.) [%] | % test substance after 24 h [F(t = 24 h) × 100/F(t = 0 h)] ([1]; buffer pH 7.4, 25° C.) [%] | solubility at 24 h [2] [µg/mL] | Structure (SMILES) |
| --- | --- | --- | --- | --- | --- |
| 100 | 101 | 100 | 100 | > 3500 | CC(C)[C@H](N)C(=O)OCCCCC(=O)N(C[C@H]1CN(c2ccc(N3CCOCC3=O)cc2)C(=O)O1)C(=O)c1ccc(Cl)s1 [Example 3, hydrochloride] |
| 100 | 100 | 96 | 84 | – | NCC(=O)SCCCCC(=O)N(C[C@H]1CN(c2ccc(N3CCOCC3=O)cc2)C(=O)O1)C(=O)c1ccc(Cl)s1 [Example 5, S-(5-{[(5-Chloro-2-thienyl)carbonyl]({(5S)-2-oxo-3-[4-(3-oxomorpholin-4-yl)phenyl]-1,3-oxazolidin-5-yl}methyl)amino}-5-oxopentyl)aminoethanethioate hydrochloride] |
| 100 | 101 | 97 | 84 | > 500 | C[C@H](N)C(=O)SCCCCC(=O)N(C[C@H]1CN(c2ccc(N3CCOCC3=O)cc2)C(=O)O1)C(=O)c1ccc(Cl)s1 [Example 7, S-(5-{[(5-Chloro-2-thienyl)carbonyl]({(5S)-2-oxo-3-[4-(3-oxomorpholin-4-yl)phenyl]-1,3-oxazolidin-5-yl}methyl)amino}-5-oxopentyl)(2S)-2-aminopropanethioate hydrochloride] |
| 100 | 100 | 86 | 48 | – | CC(C)[C@H](N)C(=O)SCCCC(=O)N(C[C@H]1CN(c2ccc(N3CCOCC3=O)cc2)C(=O)O1)C(=O)c1ccc(Cl)s1 [Example 8, S-(5-{[(5-Chloro-2-thienyl)carbonyl]({(5S)-2-oxo-3-[4-(3-oxomorpholin-4-yl)phenyl]-1,3-oxazolidin-5-yl}methyl)amino}-4-oxobutyl)(2S)-2-amino-3-methylbutanethioate hydrochloride] |
| 101 | 101 | 100 | 99 | – | O=C(NCCCCC(=O)N(C[C@H]1CN(c2ccc(N3CCOCC3=O)cc2)C(=O)O1)C(=O)c1ccc(Cl)s1)[C@@H]1CCCN1 [Example 11, N-(5-{[(5-Chloro-2-thienyl)carbonyl]({(5S)-2-oxo-3-[4-(3-oxomorpholin-4-yl)phenyl]-1,3-oxazolidin-5-yl}methyl)amino}-5-oxopentyl)-L-prolineamide hydrochloride] |
